Earlier results on two compounds are cited in patent publication US8114298B2, “Method, device and system for water treatment” (Bromine Compounds Ltd., priority 2006, dated 2012).

The structures appear in SMILES notation.

The conditions of data set [1]: at 25° C.
For data set [2] the following is noted: bleach; background statement.

On to `O=c1nc([O-])n(Cl)c(=O)n1Cl.[Na+]` [NaDCC, sodium dichloroisocyanurate], for which the solubility in water result in data set [1] is given as “up to 24%”.

On to `OCl` [Sodium Hypochlorite], for which the shelf life in data set [2] was 3-6 months.
